Assay results from ChEMBL document CHEMBL1128323, “Antifungal agents. 9. 3-Aryl-4-[alpha-(1H-imidazol-1-yl)arylmethyl]pyrroles: a new class of potent anti-Candida agents” (1995).
In brackets after ≈: the same amount, converted by molar mass.

Experiments:
Format in all cases: functional
Candida albicans [1] = test: Percent resistance against Candida albicans (40 clinical isolates) at 256 micro g/mL (pH=5.8), activity is expressed as R%.
Candida albicans [2] = test: Resistance against Candida. albicans (40 clinical isolates) at 256 ug/mL (pH=7.2), activity is expressed as R%.
Candida albicans [3] = test: Inhibitory activity against Candida albicans (40 clinical isolates), determined at pH-5.8
Candida albicans [4] = test: Inhibitory activity against Candida albicans (40 clinical isolates), determined at pH-7.2
Candida [5] = test: Inhibitory activity against Candida. species. (40 clinical isolates), determined at pH-5.8
Candida [6] = test: Inhibitory activity against Candida. species. (40 clinical isolates), determined at pH-7.2
Candida [7] = test: Inhibitory activity against Candida. species (40 clinical isolates), determined at pH-5.8
Candida [8] = test: 50% inhibitory activity against the Candida. species (40 clinical isolates) was determined at pH-7.2
Candida [9] = test: 90% inhibitory activity against Candida. species (40 clinical isolates) determined at pH-7.2
Candida [10] = test: Resistance against all Candida. species (40 clinical isolates) at 256 micro g/mL (pH=5.8). Activity is expressed as R%.
Candida [11] = test: Percent resistance against all Candida. species (40 clinical isolates) at 256 micro g/mL (pH=7.2), activity is expressed as R%.
Candida albicans [12] = test: Inhibitory activity against the Candida albicans (40 clinical isolates), determined at pH-5.8
Candida albicans [13] = test: Inhibitory activity against the Candida albicans (40 clinical isolates), determined at pH-7.2
Candida albicans [14] = test: 50% inhibitory activity against Candida albicans (40 clinical isolates) determined at pH-5.8
Candida albicans [15] = test: 50% inhibitory activity against Candida albicans (40 clinical isolates) determined at pH-7.2; details: Candida albicans; read-out: MIC50

| SMILES | R (Candida albicans [1]) [%] | R (Candida albicans [2]) [%] | MIC (Candida albicans [3]) [µg/mL] | MIC (Candida albicans [4]) [µg/mL] | MIC (Candida [5]) [µg/mL] | MIC (Candida [6]) [µg/mL] | MIC50 (Candida [7]) [µg/mL] | MIC90 (Candida [7]) [µg/mL] | MIC50 (Candida [8]) [µg/mL] | MIC90 (Candida [9]) [µg/mL] | R (Candida [10]) [%] | R (Candida [11]) [%] | MIC90 (Candida albicans [12]) [µg/mL] | MIC90 (Candida albicans [13]) [µg/mL] | MIC50 (Candida albicans [14]) [µg/mL] | MIC50 (Candida albicans [15]) [µg/mL] |
| --- | --- | --- | --- | --- | --- | --- | --- | --- | --- | --- | --- | --- | --- | --- | --- | --- |
| Clc1ccc(-c2c[nH]cc2C(c2cccc3ccccc23)n2ccnc2)cc1 (centres undefined) | 0 | 0 | 11.2 (≈ 29.2 µM) | 10.1 (≈ 26.3 µM) | 16.6 (≈ 43.2 µM) | 29 (≈ 75.5 µM) | 8 (≈ 20.8 µM) | 32 (≈ 83.4 µM) | 16 (≈ 41.7 µM) | 32 (≈ 83.4 µM) | 0 | 0 | 16 (≈ 41.7 µM) | 16 (≈ 41.7 µM) | 4 (≈ 10.4 µM) | 1 (≈ 2.6 µM) |
| Clc1ccc(C(c2c[nH]cc2-c2ccccc2Cl)n2ccnc2)cc1Cl (centres undefined) | 0 | 0 | 13.8 (≈ 34.3 µM) | 12.7 (≈ 31.5 µM) | 24.8 (≈ 61.6 µM) | 36.2 (≈ 89.9 µM) | 32 (≈ 79.5 µM) | 32 (≈ 79.5 µM) | 32 (≈ 79.5 µM) | 64 (≈ 159 µM) | 0 | 0 | 32 (≈ 79.5 µM) | 32 (≈ 79.5 µM) | 8 (≈ 19.9 µM) | 16 (≈ 39.7 µM) |
| Clc1ccc(-c2c[nH]cc2C(c2ccc(Cl)c(Cl)c2)n2ccnc2)c(Cl)c1 (centres undefined) | 0 | 0 | 7.2 (≈ 16.5 µM) | 19.6 (≈ 44.8 µM) | 14.2 (≈ 32.5 µM) | 21.3 (≈ 48.7 µM) | 16 (≈ 36.6 µM) | 16 (≈ 36.6 µM) | 16 (≈ 36.6 µM) | 32 (≈ 73.2 µM) | 0 | 0 | 32 (≈ 73.2 µM) | 32 (≈ 73.2 µM) | 2 (≈ 4.58 µM) | 16 (≈ 36.6 µM) |
| Cc1ccc(C(c2c[nH]cc2-c2ccc(Cl)cc2)n2ccnc2)cc1 (centres undefined) | 0 | 0 | 12.3 (≈ 35.4 µM) | 18.9 (≈ 54.3 µM) | 20.4 (≈ 58.6 µM) | 23.1 (≈ 66.4 µM) | 16 (≈ 46 µM) | 32 (≈ 92 µM) | 16 (≈ 46 µM) | 32 (≈ 92 µM) | 0 | 0 | 32 (≈ 92 µM) | 32 (≈ 92 µM) | 16 (≈ 46 µM) | 16 (≈ 46 µM) |
